Experimental data published in US4103010A, “(3-Piperazinocarbonylimino-quanidino)-isoxazoles” (Aron S.A.R.L., priority 1975, dated 1978).
Read-outs that look alike come from different tables or passages of the source.

What was measured:
[1] = acute toxicity investigation in mice; conditions: mouse, in vivo
[2] = tested on: uptake of ^3 H noradrenalin by the synaptosomes of a rat hypothalamus homogenate; test: inhibition of the uptake of ^3 H noradrenalin by synaptosomes of a rat hypothalamus homogenate; format: biochemical; conditions: with respect to the control test
Text: The compounds of the formula (I) are capable of modifying the accumulation of noradrenalin and particularly to inhibit the uptake of ^3 H noradrenalin by the synaptosomes of a rat hypothalamus homogenate prepared according to Banerjee, Snyder and Mechoulam (J. Pharmacol. Exp. Ther., 194, 1, 74, 1975). This inhibition of the uptake of ^3 H noradrenaline is a known property of various compounds having an activity on the central nervous system and/or on the sympathetic nervous system, particularly a hypotensive effect (J. Glowinski and J. Axelrod, effects of Drugs on the Disposition of ^3 H norepinephrine in the Rat Brain, Pharmacological Reviews, Vol. 18, No […], Part I, 1966).
They are expressed as percent inhibition of the uptake with respect to the control test.

[3] = tested on: Doca rats; test: decrease of the systolic blood pressure in Doca rats; format: in vivo; conditions: Rattus norvegicus, oral, 2 × 3 mg/kg, with respect to original value, read-out: percent decrease of the systolic blood pressure
Method: (§1) The above results are confirmed by the results of an investigation of the action on the control of blood pressure. On oral administration of a dosage of 2 × 3 mg/kg of compound to Doca rats (Technique according to Green and co-workers, Am. J. Physiol., 1952, 170, p. 94) and to Grollman rats (Technique according to Grollman, Proc. Soc. Exp. Biol. Med., 1944, 57, p. 102), the percent decrease of the systolic blood pressure with respect to its original value is noted.

[4] = tested on: Grollman rats; test: decrease of the systolic blood pressure in Grollman rats; format: in vivo, rat; conditions: oral, 2 × 3 mg/kg, with respect to original value
Method: as §1

[5] = po, read-out: LD50 (mg/kg) p.o.
[6] = ultimate molar concentration 5 × 10^-4 M
[7] = ultimate molar concentration 5 × 10^-5 M
[8] = ultimate molar concentration 5 × 10^-6 M
[9] = iv, read-out: LD50 (mg/kg) i.v.

Compound | LD50 [1, 5] | inhibition % of the uptake of ^3 H noradrenalin [2, 6] | inhibition % of the uptake of ^3 H noradrenalin [2, 7] | inhibition % of the uptake of ^3 H noradrenalin [2, 8] | inhibition in vivo at 3 mg/kg [3] | percent decrease of the systolic blood pressure [4] | LD50 [1, 9]
Cc1noc(C)c1NC(=N)NC(=N)N(C)C [Example 24] | > 750 mg/kg | 28.4% | – | – | – | – | –
Cc1conc1NC(=N)NC(=N)N1CCN(C)CC1 [Example 29] | > 1000 mg/kg | – | 65.8% | 30.8% | 15% | 15% | –
CCCN1CCN(C(=N)NC(=N)Nc2cc(C)on2)CC1 [Example 28] | 400 mg/kg | 60.2% | 20% | – | 18% | 18% | –
CCCCNC(=N)NC(=N)Nc1onc(C)c1C [Example 26] | 250 mg/kg | – | 39.6% | – | – | – | 35 mg/kg
Cc1cc(NC(=N)NC(=N)N2CCN(C)CC2)no1 [Example 19] | – | – | – | – | 20% | – | –
Cc1noc(NC(=N)NC(=N)N)c1C [Example 25] | 300 mg/kg | – | 45.5% | – | 20% | – | 20 mg/kg
Cc1cc(NC(=N)NC(=N)N2CCNCC2)no1 [Example 30] | > 1000 mg/kg | 51% | – | – | 10% | – | –
Cc1noc(C)c1NC(=N)NC(=N)N [Example 22] | > 1500 mg/kg | – | – | – | – | – | > 100 mg/kg
Cc1cc(N(C)C(=N)NC(=N)N)no1 [Example 7] | > 1000 mg/kg | – | – | – | 15% | – | 70 mg/kg
Cc1conc1NC(=N)NC(=N)N [Example 8] | – | – | 55% | 36% | – | – | –
CCCCNC(=N)NC(=N)Nc1c(C)noc1C [Example 23] | > 750 mg/kg | 51% | – | – | – | – | –
